Where two headings read alike, the source gives them in different places.
Experiments:
[1] = system: statin-treated patients with atherosclerotic coronary or vascular disease or coronary risk equivalent; test: Fasting plasma lipids, glucose and C-reactive protein during treatment; conditions: for HDL-C / LDL-C / Total Cholesterol / Final change in HDL-C / Final change in LDL-C: added to statin; for HDL-C / LDL-C / Total Cholesterol / Total cholesterol, final values / HDL-C, final values / LDL-C, final values: mean ± SD; for C-reactive protein / Triglycerides: median (inter-quartile range); for Change from baseline in LDL-C and triglycerides: 315 patients, baseline to final; for Final change in HDL-C / Final change in LDL-C: baseline to 14 months; for Total cholesterol, final values / HDL-C, final values / LDL-C, final values / Triglycerides, final values / hsCRP, final values: study completion; for Total cholesterol, final values: n=315 (ezetimibe 161, niacin 154), last observation carried forward; for HDL-C, final values / LDL-C, final values / Triglycerides, final values / hsCRP, final values: n=315; for Triglycerides, final values / hsCRP, final values: median (interquartile range);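 for all read-outs here: plasma drawn after an overnight fast, LDL-C determined by direct assay and C-reactive protein by high-sensitivity immunoturbidimetry with monoclonal anti-CRP antibodies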
Description: Study population: This prospective, randomized, parallel group, open-label, blinded endpoint study was conducted at two centers, Walter Reed Army Medical Center, a university-affiliated, suburban, tertiary care military medical center, and the Washington Adventist Hospital, a private tertiary care hospital located in Takoma Park, Md. The institutional review boards of each facility approved the study, and all volunteers provided written, informed consent. Included subjects were men and women ≧30 years old with either known atherosclerotic coronary or vascular disease (N=279) or a coronary risk equivalent diagnosis including diabetes mellitus (N=38), a 10-year coronary heart disease Framingham risk score ≧20% (N=26), or a coronary calcium score above 200 or 400 (N=20) for women and men respectively.
Randomization: Three hundred sixty-three patients were enrolled in the trial. […] Randomization was performed using a computer-generated sequence of random numbers. There were no protocol-directed changes in statin medications during the study.
Cardiovascular risk variables: Following an overnight fast, laboratory measurements included plasma total cholesterol, LDL-C, HDL-C, triglycerides, C-reactive protein, liver-associated enzymes and glucose at baseline, 2, 8 and 14 months. LDL-C was measured using a direct assay. C-reactive protein was measured with a high-sensitivity, commercially available immunoturbidimetric assay, which uses monoclonal antibodies to CRP (Roche Cobas® Integra, Switzerland).

[2] = system: statin-treated patients with atherosclerotic coronary or vascular disease or coronary risk equivalent; test: Major adverse cardiovascular events (composite clinical endpoint); format: in vivo, human; conditions: 14-month study; for Cardiovascular death (number of events) / Coronary revascularization procedure (number of events) / Myocardial infarction (number of events) / Subjects experiencing a composite clinical cardiovascular endpoint (major adverse cardiovascular events): ezetimibe N=165, niacin N=160
Description: (§1) Endpoints: The predefined primary endpoint was the between-group difference in the change in mean CIMT after 14 months. Secondary endpoints included the change in lipid values, a composite endpoint consisting of major adverse cardiovascular events (coronary heart disease death, myocardial infarction, myocardial revascularization, admission to the hospital for an acute coronary syndrome), drug discontinuation due to adverse effects, and health-related quality of life (Schweikert et al., 2008). Clinical cardiovascular endpoints were adjudicated by consensus of two members of the data advisory committee blinded to treatment assignment.

[3] = system: statin-treated patients with atherosclerotic coronary or vascular disease or coronary risk equivalent; conditions: for Deaths: of 176 ezetimibe / of 187 niacin enrolled
Description: as §1

[4] = system: statin-treated patients with atherosclerotic coronary or vascular disease or coronary risk equivalent; test: Carotid B-mode ultrasound: change in carotid intima-media thickness (CIMT), ARBITER 6-HALTS trial; format: in vivo, human; conditions: for Change in CIMT: 8 and 14 months; for Change in CIMT / Change in CIMT - Mean CIMT / Change in CIMT - Max CIMT: added to statin; for Change in CIMT - Mean CIMT / Change in CIMT - Max CIMT / Change in mean CIMT / Change from baseline CIMT, maximal thickness / Change from baseline CIMT, mean thickness: mean ± SE; for Change in mean CIMT: LOCF; for Effect of increased cumulative drug exposure on CIMT: exploratory analysis, quartiles of adherence × dose × duration; for Change from baseline CIMT, maximal thickness / Change from baseline CIMT, mean thickness: last observation carried forward, all subjects (ezetimibe n=161, niacin n=154)
Description: as §1
Carotid B-mode Ultrasound: Carotid ultrasonography was performed using a Sonosite Micromax ultrasound system (Bothell, Wash.) equipped with a broadband linear array probe (13 MHz). Participants underwent 3 ultrasound examinations during the study at baseline, 8 and 14 months. Except for the initial 20 baseline examinations performed at the Washington Adventist site, a single sonographer performed all ultrasound examinations. Images were obtained of the far wall of the distal 1 centimeter of the right and left common carotid arteries in the anterior and lateral views. A total of eight images (2 complete sets of 4 separate images) were obtained with standardized ultrasound settings. Baseline CIMT images were used to localize the site of imaging in serial images. Digitized still images from an electrocardiographically-defined diastolic frame were quantitated off-line. A single observer unaware of treatment assignment and patient identification performed measurements of mean and maximal CIMT. Focal atherosclerotic plaque was excluded from the site of CIMT measurement. All measurements were performed in duplicate using an automated border detection algorithm. […] Reader drift was evaluated using a standard image set (10 CIMT images from different patients) which the sonographer serially quantified every 6 months.
Statistical analysis: The primary endpoint was the change in mean CIMT from baseline to 14 months between the niacin and ezetimibe treatment groups. […] Clinical and carotid imaging data were held in separate databases for the duration of the trial. Between-group data for continuous variables were assessed with a t-test for independent variables or a Mann-Whitney U test as appropriate. A chi-square test was used for categorical variables. Kaplan-Meier survival analysis was performed using the log rank test. All statistical analyses were performed using SPSS software (version 16, SPSS Inc., Chicago, Ill.). Values are reported as mean±standard deviation or standard error, and median (inter-quartile range) for non-normal distributions. A 2-sided P value of 0.05 was considered statistically significant.
Study design: The study design prespecified the performance of a blinded, interim analysis according to the conservative method of O'Brien and Fleming with an alpha spending function (O'Brien et al. 1979). This was conducted after 180 subjects (60% of the planned sample size) completed the study. An independent data advisory committee evaluated the endpoint data without knowledge of treatment assignment. No formal, a priori stopping boundaries were set for the trial.

[5] = 2 Months, 208 subjects who completed 14 month study
[6] = both, human, in vivo, 14 months
[7] = 8 months from baseline, 208 completers (ezetimibe N=111, niacin N=97)
[8] = 8 months from baseline, 208 completers
[9] = 14 months from baseline, completing subjects (ezetimibe n=111, niacin n=97)
[10] = Quartile 1 (lowest) of cumulative drug exposure (adherence × dose × treatment duration)
[11] = Quartile 2 of cumulative drug exposure
[12] = Quartile 3 of cumulative drug exposure
[13] = Quartile 4 (highest) of cumulative drug exposure, 14 months

O=C(O)c1cccnc1 [Niacin, niacin]
HDL-C ([1]; 2 Months, 208 completers): 48.9 ± 10.6 mg/dL | LDL-C ([1]; 2 Months, 208 completers): 66.2 ± 18.1 mg/dL | C-reactive protein ([1]; 2 Months, 208 completers): 1.1 (0.6-3.1) mg/L | Triglycerides ([1]; 2 Months, 208 completers): 88 (69-125) mg/dL | Total Cholesterol [1, 5]: 131.0 ± 22.9 mg/dL | HDL-C ([1]; 8 Months, 208 completers): 50.7 ± 11.6 mg/dL | LDL-C ([1]; 8 Months, 208 completers): 67.1 ± 19.5 mg/dL | Total Cholesterol ([1]; 8 Months, 208 completers): 133.6 ± 25.5 mg/dL | C-reactive protein ([1]; 8 Months, 208 completers): 1.1 (0.5-2.4) mg/L | Triglycerides ([1]; 8 Months, 208 completers): 88 (66-123) mg/dL | HDL-C ([1]; 14 Months, 208 completers): 49.9 ± 12.2 mg/dL | LDL-C ([1]; 14 Months, 208 completers): 70.5 ± 23.9 mg/dL | Total Cholesterol ([1]; 14 Months, 208 completers): 136.7 ± 29.3 mg/dL | C-reactive protein ([1]; 14 Months, 208 completers): 1.0 (0.4-2.9) mg/L | Triglycerides ([1]; 14 Months, 208 completers): 90 (69-138) mg/dL | Change from baseline in LDL-C and triglycerides [1]: Significant reductions | Final change in HDL-C ([1]; 208 completers): +7.5±9.2 mg/dL | Final change in LDL-C ([1]; 208 completers): -10.0 ± 24.5 mg/dL | Total cholesterol, final values [1]: 137.6 ± 30.5 mg/dL | HDL-C, final values [1]: 49.7 ± 11.5 mg/dL | LDL-C, final values [1]: 72.7 ± 25.9 mg/dL | Triglycerides, final values [1]: 91 (69-134) mg/dl | hsCRP, final values [1]: 1.0 (0.4-2.3) mg/l | Incidence of major adverse cardiovascular events [2]: 1.3% | Cardiovascular death (number of events) [2]: 1 | Coronary revascularization procedure (number of events) [2]: 0 | Myocardial infarction (number of events) [2]: 1 | Subjects experiencing a composite clinical cardiovascular endpoint (major adverse cardiovascular events) [2]: 2 subjects | Cutaneous flushing reported [3, 6]: 36.1% | Subjects who did not complete the study ([3]; in vivo): 28 | Subjects who did not complete the study (percent) ([3]; in vivo): 14.9% | Withdrawals ([3]; in vivo): 27 | Withdrawals with adverse drug effects cited as the reason ([3]; of 9 ezetimibe / of 27 niacin withdrawals): 17 | Deaths [3]: 1 | Change in CIMT ([4]; 208 completers): significant reduction in mean and maximal CIMT (regression) | Change in CIMT - Mean CIMT [4, 7]: −0.0102 ± 0.0030 mm | Change in CIMT - Max CIMT [4, 8]: −0.0128 ± 0.0043 mm | Change in CIMT - Max CIMT [4, 9]: −0.0181 ± 0.0050 mm | Change in CIMT - Mean CIMT [4, 9]: −0.0142 ± 0.0041 mm | Change in CIMT - Mean CIMT ([4]; 14 months from baseline, completing subjects (ezetimibe n=111, niacin n=97), listed as ERN): −0.0142±0.0041 mm | Change in mean CIMT [4, 10]: −0.0052 ± 0.0041 mm | Change in mean CIMT [4, 11]: −0.0073 ± 0.0027 mm | Change in mean CIMT [4, 12]: −0.0148 ± 0.0060 mm | Change in mean CIMT [4, 13]: −0.0128 ± 0.0078 mm | Change in mean CIMT ([4]; Quartile 4 (highest) of cumulative drug exposure, 14 months, listed as ERN): −0.0128±0.0078 mm | Effect of increased cumulative drug exposure on CIMT [4]: regression of CIMT | Change from baseline CIMT, maximal thickness [4]: −0.0124 ± 0.0036 mm | Change from baseline CIMT, mean thickness [4]: −0.0102 ± 0.0026 mm | Change from baseline CIMT, maximal thickness ([4]; listed as niacin): −0.0124±0.0036 mm | Change from baseline CIMT, mean thickness ([4]; listed as niacin): −0.0102±0.0026 mm

O=C1[C@H](CC[C@H](O)c2ccc(F)cc2)[C@@H](c2ccc(O)cc2)N1c1ccc(F)cc1 [Ezetimibe, ezetimibe]
HDL-C ([1]; 2 Months, 208 completers): 42.2 ± 8.5 mg/dL | LDL-C ([1]; 2 Months, 208 completers): 60.1 ± 16.1 mg/dL | C-reactive protein ([1]; 2 Months, 208 completers): 1.2 (0.6-3.0) mg/L | Triglycerides ([1]; 2 Months, 208 completers): 100 (78-140) mg/dL | Total Cholesterol [1, 5]: 120.2 ± 20.6 mg/dL | HDL-C ([1]; 8 Months, 208 completers): 41.1 ± 9.0 mg/dL | LDL-C ([1]; 8 Months, 208 completers): 61.6 ± 17.2 mg/dL | Total Cholesterol ([1]; 8 Months, 208 completers): 122.4 ± 21.5 mg/dL | C-reactive protein ([1]; 8 Months, 208 completers): 1.3 (0.6-2.9) mg/L | Triglycerides ([1]; 8 Months, 208 completers): 107 (78-153) mg/dL | HDL-C ([1]; 14 Months, 208 completers): 40.5 ± 7.9 mg/dL | LDL-C ([1]; 14 Months, 208 completers): 66.1 ± 18.8 mg/dL | Total Cholesterol ([1]; 14 Months, 208 completers): 127.8 ± 22.8 mg/dL | C-reactive protein ([1]; 14 Months, 208 completers): 0.6 (0.6-3.1) mg/L | Triglycerides ([1]; 14 Months, 208 completers): 113 (84-150) mg/dL | Change from baseline in LDL-C and triglycerides [1]: Significant reductions | Final change in HDL-C ([1]; 208 completers): -2.8 ± 5.7 mg/dL | Final change in LDL-C ([1]; 208 completers): -17.6 ± 20.1 mg/dL | Total cholesterol, final values [1]: 127.5 ± 24.8 mg/dL | HDL-C, final values [1]: 41.1 ± 8.5 mg/dL | LDL-C, final values [1]: 65.5 ± 20.0 mg/dL | Triglycerides, final values [1]: 111 (82-144) mg/dl | hsCRP, final values [1]: 1.0 (0.5-2.9) mg/l | Incidence of major adverse cardiovascular events [2]: 5.8% | Cardiovascular death (number of events) [2]: 5 | Coronary revascularization procedure (number of events) [2]: 3 | Myocardial infarction (number of events) [2]: 3 | Subjects experiencing a composite clinical cardiovascular endpoint (major adverse cardiovascular events) [2]: 9 subjects | Withdrawals with adverse drug effects cited as the reason [3, 6]: 3 | Subjects who did not complete the study ([3]; in vivo): 16 | Subjects who did not complete the study (percent) ([3]; in vivo): 9.1% | Withdrawals ([3]; in vivo): 9 | Deaths [3]: 7 | Change in CIMT ([4]; 208 completers): No net change | Change in CIMT - Mean CIMT [4, 7]: 0.0014 ± 0.0020 mm | Change in CIMT - Max CIMT [4, 8]: −0.0028 ± 0.0031 mm | Change in CIMT - Max CIMT [4, 9]: −0.0009 ± 0.0039 mm | Change in CIMT - Mean CIMT [4, 9]: −0.0007 ± 0.0035 mm | Change in mean CIMT [4, 10]: −0.0071 ± 0.0031 mm | Change in mean CIMT [4, 11]: −0.0051 ± 0.0036 mm | Change in mean CIMT [4, 12]: −0.0009 ± 0.0067 mm | Change in mean CIMT [4, 13]: 0.0067 ± 0.0059 mm | Change in mean CIMT ([4]; Quartile 4 (highest) of cumulative drug exposure, 14 months, listed as ezetimibe): 0.0067±0.0059 mm | Effect of increased cumulative drug exposure on CIMT [4]: progression of CIMT | Change from baseline CIMT, maximal thickness [4]: −0.0005 ± 0.0029 mm | Change from baseline CIMT, mean thickness [4]: −0.0016 ± 0.0024 mm | Change from baseline CIMT, maximal thickness ([4]; listed as ezetimibe): −0.0005±0.0029 mm | Change from baseline CIMT, mean thickness ([4]; listed as ezetimibe): −0.0016±0.0024 mm
